The source of these data is patent US20220380314A1, “SUBSTITUTED, SATURATED AND UNSATURATED N-HETEROCYCLIC CARBOXAMIDES AND RELATED COMPOUNDS FOR THEIR USE IN THE TREATMENT OF MEDICAL DISORDERS” (Bial - R&D Investments, S.A., priority 2019, published 2022).

Molecules are shown by their SMILES. In brackets after ≈: the same amount, converted by molar mass. Where a name gives a salt, the structure may show the parent alone. Some results are limits rather than exact numbers.

The target in one data set is T1, acid ceramidase (hACR) (Homo sapiens, UniProt Q13510).
T1 construct: expressed in transfected cells; cell lysate used
T1 sequence (Q13510 143-395 limits assumed): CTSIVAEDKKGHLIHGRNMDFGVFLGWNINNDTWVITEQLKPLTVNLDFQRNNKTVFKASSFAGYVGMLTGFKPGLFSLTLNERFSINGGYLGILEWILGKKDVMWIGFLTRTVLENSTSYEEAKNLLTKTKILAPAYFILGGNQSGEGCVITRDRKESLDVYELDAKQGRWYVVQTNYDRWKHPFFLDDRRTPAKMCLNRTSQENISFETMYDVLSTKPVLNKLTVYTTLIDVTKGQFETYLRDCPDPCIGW
T1 sequence (Q13510 22-142 limits assumed): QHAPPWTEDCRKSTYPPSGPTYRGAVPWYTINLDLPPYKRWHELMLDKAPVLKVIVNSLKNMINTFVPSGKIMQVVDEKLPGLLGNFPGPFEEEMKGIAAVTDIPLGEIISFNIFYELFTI
In words: Acid ceramidase inhibition, biochemical fluorescent assay with cell lysates overexpressing acid ceramidase, substrate Rbm14-12. Particulars: cell lysates overexpressing acid ceramidase; 1 hr preincubation at RT; pH 4.5; substrate Rbm14-12 6.3 μM; read-out: hACR IC50. The method, then:
The ability of exemplary compounds to inhibit acid ceramidase was measured.
Cell lysates overexpressing acid ceramidase were used as the enzyme source for compound potency determination in a biochemical fluorescent assay. Briefly, compounds were preincubated with 10 µg protein of cell lysates in a dose-response manner for 1 hr at RT in the assay buffer containing 25 mM NaAC and 100 mM NaCl, pH 4.5. The reaction was initiated by the addition of substrate Rbm14-12 at a final concentration of 6.3 μM. The reaction was run at RT for 1 hr before it was stopped by the addition of the stopping buffer containing 20% methanol (v/v), 1 mg/ml NaIO4, 0.1 M glycine, pH 10.6. The samples were incubated with the stopping buffer at RT for 1 hr to allow the fluorescent product to be formed. Finally the plate was read with SpectraMax i3 plate reader (Molecular Devices) at ex360 nm and em446 nm. Data were collected and used to determine the IC50 values of compounds by curve fitting to the four-parameter inhibition equation.
The symbol “A” indicates inhibition of less than 0.2 μM; the symbol “B” indicates inhibition in the range of 0.2 μM up to 1 μM; and the symbol “C” indicates inhibition of greater than 1 μM.
As a reminder, the IC50 is the concentration at which inhibition is half-maximal. On to `CC1(C)CCc2cccc(F)c2N1C(=O)NCCc1ccccc1` [Example 35, 8-Fluoro-2,2-dimethyl-N-phenethyl-3,4-dihydroquinoline-1(2H)-carboxamide], for which the IC50 fell in the range of 200 to 1000 nM.
The same measure, in the same setting: for `CC1(C)Cc2ccccc2N1C(=O)NCCc1ccccc1` [Example 67, 2,2-Dimethyl-N-phenethylindoline-1-carboxamide] the value was > 1000 nM; for `COC1CC(C)(C)N(C(=O)NCCc2ccccc2)c2ccccc21` (stereo not shown) [Example 19, 4-Methoxy-2,2-dimethyl-N-phenethyl-3,4-dihydroquinoline-1(2)-carboxamide], 200 to 1000 nM.
Take `CCCCCNC(=O)N1C(c2ccc(F)cc2)COCC1(C)C` (single isomer, unassigned) [Example 139, (5S) or (5R)-5-(4-fluorophenyl)-3,3-dimethyl-N-pentylmorpholine-4-carboxamide]: the IC50 is < 200 nM.
Still for that read-out and setting: for `CC1(C)CC(N2CCCC(c3ccccc3)C2)CCN1C(=O)NCCCCc1ccccc1` (mixture of isomers) [Example 92, 2,2-Dimethyl-N-(4-phenylbutyl)-4-(3-phenyl-1-piperidyl)piperidine-1-carboxamide] the value was > 1000 nM; for `CCCCCNC(=O)N1C/C(=C\c2ccccc2)C(N2CCCCC2)CC1(C)C` (stereo not shown) [Example 130, (5E)-5-Benzylidene-2,2-dimethyl-N-pentyl-4-(1-piperidyl)piperidine-1-carboxamide], < 200 nM; for `CC1(C)CC(N2CCCCC2)C(Cc2ccccc2)CN1C(=O)NCCc1ccccc1` (stereo not shown) [Example 126, 5-Benzyl-2,2-dimethyl-N-(2-phenylethyl)-4-(1-piperidyl)piperidine-1-carboxamide], < 200 nM.
Same read-out and setting: for `CCCCCNC(=O)N1[C@H](C)COC[C@@H]1c1ccc(F)cc1` [Example 142, (3S,5R)-3-(4-Fluorophenyl)-5-methyl-N-pentylmorpholine-4-carboxamide] the value was 200 to 1000 nM; for `CC1(C)C(=O)N(c2ccccc2)CCN1C(=O)NCCCCc1ccccc1` [Example 106, 2,2-Dimethyl-3-oxo-4-phenyl-N-(4-phenylbutyl)piperazine-1-carboxamide], < 200 nM.
Same read-out and setting: for `CC1(C)CN(C2CC2)CCN1C(=O)NCCCCc1ccccc1` [Example 111, 4-Cyclopropyl-2,2-dimethyl-N-(4-phenylbutyl)piperazine-1-carboxamide] the value was < 200 nM; for `CC1(C)CN(C(=O)NCCCCc2ccccc2)C(C)(C)CC1=O` [Example 120, 2,2,5,5-Tetramethyl-4-oxo-N-(4-phenylbutyl)piperidine-1-carboxamide], > 1000 nM; for `CC1CCC(N2CCCCC2)CN1C(=O)NCCCCc1ccccc1` (stereo not shown) [Example 100, 2-Methyl-N-(4-phenylbutyl)-5-(1-piperidyl)piperidine-1-carboxamide], 200 to 1000 nM.
For the molecule `CC1(C)CC(=O)C(Cc2ccccc2)CN1C(=O)NCCCCc1ccccc1` (stereo not shown) [Example 121, 5-Benzyl-2,2-dimethyl-4-oxo-N-(4-phenylbutyl)piperidine-1-carboxamide], the IC50 was < 200 nM.
On the same count and under the same terms, for `CC1(C)CCCCN1C(=O)NCCCCc1ccccc1` [Example 90, 2,2-Dimethyl-N-(4-phenylbutyl)piperidine-1-carboxamide carboxamide] the value was > 1000 nM; for `CCCCCNC(=O)N1CC(C)C(N2CCCCC2)CC1(C)C` (stereo not shown) [Example 124, 2,2,5-Trimethyl-N-pentyl-4-(1-piperidyl)piperidine-1-carboxamide], < 200 nM.
Same read-out and setting: for `CC1(C)CN(c2cncnc2)CCN1C(=O)NCCCCc1ccccc1` [Example 105, 2,2-Dimethyl-N-(4-phenylbutyl)-4-pyrimidin-5-yl-piperazine-1-carboxamide] the value was > 1000 nM.
Same read-out and setting: for `CCCCCNC(=O)N1C[C@@H](C)N(C2CC2)C[C@@H]1C` [Example 114, (2S,5R)-4-cyclopropyl-2,5-dimethyl-N-pentylpiperazine-1-carboxamide] the value was > 1000 nM; for `CCCCCNC(=O)N1CCC(N2CCCCC2)C[C@H]1C` (stereo partly drawn) [Example 96, (2R)-Methyl-N-pentyl-4-(1-piperidyl)piperidine-1-carboxamide hydrochloride salt], < 200 nM.
For `CN1CC(c2ccc(F)cc2)N(C(=O)NCCOCC2CC2)C(C)(C)C1` (stereo not shown) [Example 168, N-[2-(Cyclopropylmethoxy)ethyl]-6-(4-fluorophenyl)-2,2,4-trimethylpiperazine-1-carboxamide hydrochloride], the IC50 was < 200 nM.
The same measure, in the same setting: for `CC1(C)CC(c2ccccc2)CCN1C(=O)NC1CCOCC1` (stereo not shown) [Example 78, 2,2-Dimethyl-4-phenyl-N-tetrahydropyran-4-yl-piperidine-1-carboxamide] the value was > 1000 nM; for `CCCCCNC(=O)N1[C@@H]2CC[C@H]1CC(c1ccccc1)C2` (mixture of isomers) [Example 82, endo- and exo-N-Pentyl-3-phenyl-8-azabicyclo[3.2.1]octane-8-carboxamide], > 1000 nM; for `CC1CCC(c2ccccc2)CN1C(=O)NCCCCc1ccccc1` (mixture of isomers) [Example 80, 2-Methyl-5-phenyl-N-(4-phenylbutyl)piperidine-1-carboxamide], < 200 nM.
Still for that read-out and setting: for `CC1(C)C(=O)N(c2ccccc2)CCN1C(=O)NCCOCc1ccccc1` [Example 108, N-(2-Benzyloxyethyl)-2,2-dimethyl-3-oxo-4-phenylpiperazine-1-carboxamide] the value was > 1000 nM; for `CC(C)[C@H]1CN(C2CC2)CCN1C(=O)NCCCCc1ccccc1` [Example 117, (2S)-4-Cyclopropyl-2-isopropyl-N-(4-phenylbutyl)piperazine-1-carboxamide], > 1000 nM; for `CCCCCCCNC(=O)N1C(c2ccccc2)COCC1(C)C` (stereo not shown) [Example 134, N-Heptyl-3,3-dimethyl-5-phenylmorpholine-4-carboxamide], < 200 nM.
Take `CCCCCNC(=O)N1C(c2ccc(OC)c(F)c2)COCC1(C)C` (stereo not shown) [Example 161, 5-(3-Fluoro-4-methoxyphenyl)-3,3-dimethyl-N-pentylmorpholine-4-carboxamide]: the IC50 is < 200 nM.
For the molecule `COc1ccc(C2COCC(C)(C)N2C(=O)NCCC(C)C)cc1` (stereo not shown) [Example 147, N-iso-Pentyl-5-(4-methoxyphenyl)-3,3-dimethylmorpholine-4-carboxamide], the IC50 was < 200 nM.
On the same count and under the same terms, for `CC1(C)COCC(c2ccccc2)N1C(=O)NC1CCCCC1` (stereo not shown) [Example 135, N-Cyclohexyl-3,3-dimethyl-5-phenylmorpholine-4-carboxamide] the value was 200 to 1000 nM; for `CC1(C)CN(c2ccccn2)CCN1C(=O)NCCCCc1ccccc1` [Example 104, 2,2-Dimethyl-N-(4-phenylbutyl)-4-(2-pyridyl)piperazine-1-carboxamide], > 1000 nM.

Test system in a further data set: not listed separately
In words: Compound solubility in water. The class given is physicochemical.
Conditions: not given
One may read the solubility as the concentration that dissolves in the medium under given conditions. Higher therefore signals much dissolved substance. On to `CC1(C)CCc2cccc(F)c2N1C(=O)NCCc1ccccc1` [Example 35, 8-Fluoro-2,2-dimethyl-N-phenethyl-3,4-dihydroquinoline-1(2H)-carboxamide], for which the concentration in solution (solubility) came to 6.02 µM (≈ 1.97 µg/mL).
As for `CC1(C)Cc2ccccc2N1C(=O)NCCc1ccccc1` [Example 67, 2,2-Dimethyl-N-phenethylindoline-1-carboxamide], the concentration in solution (solubility) was 8.3 µM (≈ 2.44 µg/mL).
On to `COC1CC(C)(C)N(C(=O)NCCc2ccccc2)c2ccccc21` (stereo not shown) [Example 19, 4-Methoxy-2,2-dimethyl-N-phenethyl-3,4-dihydroquinoline-1(2)-carboxamide], for which the concentration in solution (solubility) was 6.5 µM (≈ 2.2 µg/mL).
The molecule `COC1CCN(C(=O)NCCc2ccccc2)C(C)(C)C1` (stereo not shown) [Example 36, 4-Methoxy-2,2-dimethyl-N-phenethylpiperidine-1-carboxamide] showed a solubility of 33.4 µM (≈ 9.7 µg/mL).
For `COCCNC(=O)N1c2ccccc2CCC1(C)C` [Example 32, N-(2-Methoxyethyl)-2,2-dimethyl-3,4-dihydroquinoline-1(2H)-carboxamide], the concentration in solution (solubility) came to 28.7 µM (≈ 7.53 µg/mL).
